Legend:
[1] = tested on: SOCE/Orai1 in CF peripheral blood neutrophils; experiment: Fluo-4 Ca2+ assay, global thapsigargin-stimulated Ca2+ response (SOCE), CF neutrophils; type: cell-based, human
Procedure: Neutrophils were immediately isolated by negative selection from deidentified blood samples using an EasySep human neutrophil isolation kit (Stem Cell Technologies) as described. Cytosolic Ca^2+ was measured using Fluo-4 as described. Protein lysate from isolated blood neutrophils was characterized by liquid chromatography with tandem mass spectrometry (LC-MS/MS) as described. Degranulation products in media were quantified by Luminex assay using a custom Bio-Plex human kit (BioRad) per the manufacturer’s protocol […]. Detailed methods for all experiments and measurements are provided in an online data supplement.
(§1) Isolated neutrophils were incubated with peptide or vehicle control for 3 h. For the final hour of treatment, cells were loaded with Fluo-4 direct (Thermofisher) for 45 min at 37°C and 15 min at room temperature as described.
Fluo-4 Ca^2+ assays. Isolated neutrophils were incubated with peptide or vehicle control for 3 h. For the final hour of treatment, cells were loaded with Fluo-4 direct (Thermofisher) for 45 min at 37°C and 15 min at room temperature. For global Ca^2+ measurements, baseline fluorescent readings were made for 2 min (1 read every 30 s) using a Tecan Infinite M1000 plate reader (ex 494 em 516 nm, bandwidth 5 nm) before thapsigargin (Sigma-Aldrich) was added and the change in emission was recorded for 10 min (1 read every 30 s). To isolate phases of store operated Ca^2+ entry, cells underwent 3 rounds of centrifugation and resuspension in Ca^2+-free Ringer’s solution to remove extracellular Ca^2+. Baseline fluo-4 fluorescence was read for 2 min before cell were stimulated with thapsigargin (Tocris). Reads continued for ~5 min before 1.2 mM Ca^2+ was added to the extracellular solution and SOCE was measured for ~10 mins. For analysis, all fluo-4 fluorescence reads are normalized to baseline.

[2] = tested on: Pseudomonas aeruginosa-infected mice; settings: ref [21], cited from earlier work
[3] = tested on: Ca2+ influx in CF neutrophils; experiment: Fluo-4 Ca2+ influx across the plasma membrane, CF neutrophils; type: cell-based, human
Procedure: as §1
(§2) Fig. 3. ELD607 inhibits SOCE in non-CF and CF neutrophils. (A) and (B) Mean changes in fluo-4 fluorescence as a marker of cytoplasmic Ca^2+ levels in non-CF and CF neutrophils respectively before and after stimulation with 1 μM thapsigargin (Tg). Before stimulation, neutrophils were exposed to vehicle (0.1% DMSO in PBS), 10 μM ELD607 or scrambled peptide (control) for 3 h. N = 10 non-CF and 21 CF donors. Stats show ELD607 vs vehicle or scrambled peptide based on color. (C-F) Isolation of ER Ca^2+ release vs Ca^2+ influx across the plasma membrane in non-CF and CF Neutrophils. Neutrophils were stimulated with thapsigargin (1 μM) in the absence of extracellular Ca^2+ to allow the release of Ca^2+ stores to be measured. Extracellular Ca^2+ was then returned so that extracellular Ca^2+ influx could be measured. (C) Mean fold change in Fluo-4 fluorescence during ER store release in non-CF and CF neutrophils. […] (E) Mean fold change in fluo-4 fluorescence during Ca^2+ influx in non-CF and CF neutrophils. […]
SOCE has 2 phases: release of Ca^2+ from ER stores and Ca^2+ influx from the extracellular space via Ca^2+ channels such as Orai1. […] Once the stores had emptied, extracellular Ca^2+ was reintroduced and Ca^2+ influx was measured (Fig. 3C–F).
Fluo-4 Ca^2+ assays. […] For global Ca^2+ measurements, baseline fluorescent readings were made for 2 min (1 read every 30 s) using a Tecan Infinite M1000 plate reader (ex 494 em 516 nm, bandwidth 5 nm) before thapsigargin (Sigma-Aldrich) was added and the change in emission was recorded for 10 min (1 read every 30 s). […] Baseline fluo-4 fluorescence was read for 2 min before cell were stimulated with thapsigargin (Tocris). Reads continued for ~5 min before 1.2 mM Ca^2+ was added to the extracellular solution and SOCE was measured for ~10 mins. For analysis, all fluo-4 fluorescence reads are normalized to baseline.

[4] = tested on: Staphylococcus aureus-infected mice; settings: ref [21], cited from earlier work
[5] = tested on: ER Ca2+ store release in CF neutrophils; experiment: Fluo-4 ER Ca2+ release, CF neutrophils; type: cell-based, human; settings: 3 h pre-treatment, 1 μM thapsigargin, no extracellular Ca2+, 3 donors in triplicate, curves non-CF vs CF p<0.0001
Procedure: as §1
as §2, with “(C-F) Isolation of ER Ca^2+ release vs Ca^2+ influx across the plasma membrane in non-CF and CF Neutrophils.” left out
SOCE has 2 phases: release of Ca^2+ from ER stores and Ca^2+ influx from the extracellular space via Ca^2+ channels such as Orai1. […] Once the stores had emptied, extracellular Ca^2+ was reintroduced and Ca^2+ influx was measured (Fig. 3C–F). […]

[6] = tested on: bacterial lung infections in mice; settings: cited from earlier work
Excerpt: In ... || CF neutrophils with elevated SOCE undergo more degranulation, leading to greater release of proteases/pro-inflammatory mediators. Therefore, increased SOCE may be a driving force for declining CF lung function. However, there is much to do to fully understand this phenomenon, and our data identify an association, not a causality. […] To date, several blood biomarkers have been identified as predictors of CF lung disease. Most biomarkers ( ...

[7] = tested on: HEK293T Orai1, Orai2 and Orai3 triple knockout cells; experiment: SOCE in Orai1/2/3 triple knockout HEK293T cells; type: cell-based; settings: thapsigargin, 7-9 replicates, 3 experiments
Excerpt: (§3) We hypothesized that inhibiting SOCE in CF neutrophils may reduce the secretion of neutrophil elastase and other proteins associated with CF lung disease. To validate ELD607’s specificity for Orai1 over Orai2 and Orai3, we first evaluated ELD607 function in HEK293T cells that had Orai1, Orai2 and Orai3 stably knocked out. […] Next we evaluated ELD607’s ability to inhibit SOCE in non-CF and CF neutrophils.
(§4) Supplemental figure 3. […] Dose responses of thapsigargin-induced changes in cytoplasmic Ca^2+ concentrations. These studies were performed in HEK293T where Orai1, Orai2 and Orai3 had been stably knocked down (triple knockout cells, TKO) or in TKO cells that were transiently transfected with Orai1, Orai2 or Orai3 as indicated. All data are from 7-9 replicates per data point from 3 separate experiments.

neutrophil elastase = settings: cited from earlier work
MRSA-infected mice = tested on: MRSA-infected mice; set-up: method as in earlier work; settings: reduced lung injury, increased survival, ref [21]; cited from earlier work
Orai3 = experiment: SOCE in triple knockout HEK293T cells transfected with Orai3; type: cell-based
Excerpt: as §3, §4

[8] = murine models of bacterial lung infections, ref [21]

## VHDIVNMLIRG [ELD607, size-optimized SPLUNC1/α6 peptidomimetic]
[1]; CF, 10 μM peptide, 3 h pre-treatment, 1 μM thapsigargin, Fluo-4, N = 21 donors
  inhibition of SOCE (global Ca2+ response): significantly inhibited SOCE regardless of genotype
[1]; neutrophils (discussion of Fig. 3)
  completeness of inhibition of Ca2+ signaling: not 100% inhibited
[2]; P. aeruginosa-infected mice
  neutrophilia and neutrophil elastase release: reduces neutrophilia and neutrophil elastase release
[2]; mice, P. aeruginosa, reduced lung injury, increased survival
  neutrophil influx into the lungs: reduces neutrophil influx into the lungs of mice
[3]; CF neutrophils, absolute terms
  Ca2+ influx relative to non-CF levels: restored Ca^2+ from influx CF neutrophils to non-CF levels
[3]; CF, 3 h pre-treatment, 1 μM thapsigargin, extracellular Ca2+ (1.2 mM) returned, 3 donors in triplicate, vs non-CF p<0.0001
  IC50: 493 nM
[4]; S. aureus-infected mice
  neutrophilia and neutrophil elastase release: reduces neutrophilia and neutrophil elastase release
[4]; mice, S. aureus, reduced lung injury, increased survival
  neutrophil influx into the lungs: reduces neutrophil influx into the lungs of mice
[5]
  IC50: 413 nM
[6]; inhaled ELD607, ref [53]
  neutrophilia caused by bacterial infections: abolished neutrophilia
[6]; [8]
  neutrophilia and lung damage: reduced neutrophilia and lung damage
  survival: increased survival
[6]; wild-type mice, alveolar macrophages depleted, ref [21]
  beneficial effects after depletion of alveolar macrophages: abolished the beneficial effects of ELD607
[7]
  effect on SOCE: no effect on SOCE
Neutrophil elastase
  stability in neutrophil elastase: protease-resistant and stable in CF patient-derived neutrophil elastase
MRSA-infected mice
  neutrophil influx into the lungs: reduces neutrophil influx into the lungs of mice
Orai3; TKO + Orai3, thapsigargin, dose response, 7-9 replicates
  sensitivity of SOCE to ELD607: relatively insensitive
Orai3; discussion summary of supplemental figure 3
  specificity for Orai1: effect on Orai3: little effect on Orai2 and Orai3
